Reference: ChEMBL document CHEMBL5528086, “Unraveling the Promise of RET Inhibitors in Precision Cancer Therapy by Targeting RET Mutations” (J Med Chem, 2024)

How the values were obtained:
[1] = target: T1, Proto-oncogene tyrosine-protein kinase receptor Ret (Homo sapiens, UniProt P07949); test: Inhibition of wild type human RET by KINOMEscan assay
[2] = target: Vascular endothelial growth factor receptor 2 (Homo sapiens, UniProt P35968); test: Inhibition of wild type VEGFR2 (unknown origin) expressed in baculovirus infected insect cells using biotinylated-GGGGQDGKDYIVLPI peptide as substrate incubated for 1 to 4 hrs by TRF assay; set-up: species or system Insect cell
[3] = target: T2, Proto-oncogene tyrosine-protein kinase receptor Ret (Homo sapiens, UniProt P07949, V804M); test: Inhibition of RET V804M mutant (unknown origin) by KINOMEscan assay
T2 sequence (P07949 29-1114 V804M limits assumed): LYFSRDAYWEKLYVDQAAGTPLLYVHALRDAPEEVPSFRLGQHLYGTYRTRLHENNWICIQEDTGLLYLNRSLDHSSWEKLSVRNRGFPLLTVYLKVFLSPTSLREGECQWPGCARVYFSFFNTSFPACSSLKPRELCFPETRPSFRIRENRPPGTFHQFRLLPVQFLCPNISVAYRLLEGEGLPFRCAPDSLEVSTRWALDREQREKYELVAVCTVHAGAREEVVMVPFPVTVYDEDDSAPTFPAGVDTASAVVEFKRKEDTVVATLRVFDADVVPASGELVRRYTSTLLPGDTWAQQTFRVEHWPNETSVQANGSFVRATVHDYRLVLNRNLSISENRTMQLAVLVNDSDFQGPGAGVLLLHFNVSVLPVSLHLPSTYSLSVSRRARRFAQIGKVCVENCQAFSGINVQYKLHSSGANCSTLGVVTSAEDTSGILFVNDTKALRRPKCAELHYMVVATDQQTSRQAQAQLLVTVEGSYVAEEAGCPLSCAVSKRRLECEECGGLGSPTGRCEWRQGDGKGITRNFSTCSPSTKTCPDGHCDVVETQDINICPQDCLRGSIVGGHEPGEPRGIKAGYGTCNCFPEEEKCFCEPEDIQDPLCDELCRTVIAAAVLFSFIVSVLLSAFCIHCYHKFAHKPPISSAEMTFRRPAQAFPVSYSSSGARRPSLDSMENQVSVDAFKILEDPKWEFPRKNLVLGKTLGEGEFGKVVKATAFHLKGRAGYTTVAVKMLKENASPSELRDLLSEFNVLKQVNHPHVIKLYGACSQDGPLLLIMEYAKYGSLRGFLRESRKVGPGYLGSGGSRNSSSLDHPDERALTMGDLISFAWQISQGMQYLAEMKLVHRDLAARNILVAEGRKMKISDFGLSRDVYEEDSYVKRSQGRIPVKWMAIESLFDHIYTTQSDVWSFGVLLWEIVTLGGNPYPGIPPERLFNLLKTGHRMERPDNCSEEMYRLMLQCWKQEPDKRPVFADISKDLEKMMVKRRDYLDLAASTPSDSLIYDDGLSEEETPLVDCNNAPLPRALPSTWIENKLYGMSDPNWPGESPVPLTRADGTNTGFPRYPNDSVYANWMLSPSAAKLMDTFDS

[4] = test system: Proto-oncogene tyrosine-protein kinase receptor Ret (Homo sapiens), P07949 [S904F]; test: Inhibition of RET S904F mutant (unknown origin) at 1 nM relative to control
[5] = target: T1, Proto-oncogene tyrosine-protein kinase receptor Ret; test: Inhibition of full length His-tagged human recombinant RET expressed in baculovirus infected Sf9 cells
[6] = test system: Proto-oncogene tyrosine-protein kinase receptor Ret (Homo sapiens), P07949 [V804L]; test: Inhibition of RET V804L mutant (unknown origin) at 4 nM by enzymatic assay relative to control
Sequence of Proto-oncogene tyrosine-protein kinase receptor Ret (Homo sapiens), P07949 [V804L] (P07949 whole entry V804L): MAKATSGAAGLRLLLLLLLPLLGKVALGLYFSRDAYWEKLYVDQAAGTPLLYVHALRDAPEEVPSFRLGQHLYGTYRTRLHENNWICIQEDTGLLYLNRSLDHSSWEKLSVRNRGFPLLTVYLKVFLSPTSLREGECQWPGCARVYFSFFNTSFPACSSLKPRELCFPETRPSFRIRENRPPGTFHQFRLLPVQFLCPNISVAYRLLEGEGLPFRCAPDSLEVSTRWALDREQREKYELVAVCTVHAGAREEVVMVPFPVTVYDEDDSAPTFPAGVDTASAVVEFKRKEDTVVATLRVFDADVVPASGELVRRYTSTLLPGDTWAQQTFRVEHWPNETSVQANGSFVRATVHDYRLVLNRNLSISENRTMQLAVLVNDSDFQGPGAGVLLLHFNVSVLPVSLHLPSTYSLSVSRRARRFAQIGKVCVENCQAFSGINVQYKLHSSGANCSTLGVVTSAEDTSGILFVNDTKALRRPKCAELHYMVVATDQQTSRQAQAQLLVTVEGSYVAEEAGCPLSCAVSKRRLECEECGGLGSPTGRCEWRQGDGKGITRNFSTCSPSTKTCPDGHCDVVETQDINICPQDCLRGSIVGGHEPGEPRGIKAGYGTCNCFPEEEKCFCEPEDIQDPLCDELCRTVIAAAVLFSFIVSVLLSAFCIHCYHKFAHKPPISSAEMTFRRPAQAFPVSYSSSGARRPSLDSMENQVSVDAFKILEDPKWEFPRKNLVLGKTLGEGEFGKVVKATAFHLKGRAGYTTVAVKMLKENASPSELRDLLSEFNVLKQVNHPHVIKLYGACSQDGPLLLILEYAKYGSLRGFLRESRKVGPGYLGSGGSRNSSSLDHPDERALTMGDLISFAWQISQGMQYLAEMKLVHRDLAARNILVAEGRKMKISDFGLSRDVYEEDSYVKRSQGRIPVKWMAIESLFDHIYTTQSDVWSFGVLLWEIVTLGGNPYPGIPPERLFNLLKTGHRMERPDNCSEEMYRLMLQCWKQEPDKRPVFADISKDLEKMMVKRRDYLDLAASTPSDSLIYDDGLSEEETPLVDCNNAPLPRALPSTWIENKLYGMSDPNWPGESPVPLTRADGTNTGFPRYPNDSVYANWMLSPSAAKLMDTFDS

[7] = Antiproliferative activity against human LC2 cells assessed as reduction in cell growth measured for 48 hrs by MTT assay; format: functional, cell-based; details: LC2, 48 h
[8] = target: Coiled-coil domain-containing protein 6/Tyrosine-protein kinase receptor RET (Homo sapiens, UniProt P07949); test: Inhibition of CCDC6-RET (unknown origin); format: protein assay
[9] = target: Proto-oncogene tyrosine-protein kinase receptor Ret (Homo sapiens, UniProt P07949, G810V); test: Inhibition of RET G810V mutant (unknown origin)
[10] = target: Proto-oncogene tyrosine-protein kinase receptor Ret (Homo sapiens, UniProt P07949, G810R); test: Inhibition of RET G810R mutant (unknown origin)
[11] = target: T1, Proto-oncogene tyrosine-protein kinase receptor Ret; test: Inhibition of GST-tagged wild type RET (unknown origin) expressed in Sf9 cells
[12] = target: Proto-oncogene tyrosine-protein kinase receptor Ret (Homo sapiens, UniProt P07949, G810A); test: Inhibition of RET G810A mutant (unknown origin)
[13] = target: Proto-oncogene tyrosine-protein kinase receptor Ret (Homo sapiens, UniProt P07949, G810S); test: Inhibition of RET G810S mutant (unknown origin)
[14] = target: Proto-oncogene tyrosine-protein kinase receptor Ret (Homo sapiens, UniProt P07949, G810C); test: Inhibition of RET G810C mutant (unknown origin)
[15] = target: T2, Proto-oncogene tyrosine-protein kinase receptor Ret; test: Inhibition of RET V804M mutant (unknown origin) expressed in Sf9 cells by enzymatic assay
[16] = target: Proto-oncogene tyrosine-protein kinase receptor Ret (Homo sapiens, UniProt P07949, G810D); test: Inhibition of RET G810D mutant (unknown origin)
[17] = Inhibition of CCDC6-RET (unknown origin)
[18] = test system: Proto-oncogene tyrosine-protein kinase receptor Ret (Homo sapiens), P07949 [V804L]; test: Inhibition of RET V804L mutant (unknown origin) at 4 nM relative to control
[19] = target: T1, Proto-oncogene tyrosine-protein kinase receptor Ret; test: Inhibition of wild type His-tagged human RET by ADP-Glo assay
[20] = target: Proto-oncogene tyrosine-protein kinase receptor Ret (Homo sapiens, UniProt P07949, V804L); test: Inhibition of RET V804L mutant (unknown origin)
Sequence of Proto-oncogene tyrosine-protein kinase receptor Ret (Homo sapiens, UniProt P07949, V804L) (P07949 29-1114 V804L limits assumed): as the sequence (P07949 29-1114 V804M limits assumed) above, with M776L counted along it

[21] = target: ALK tyrosine kinase receptor (Homo sapiens, UniProt Q9UM73); test: Inhibition of wild type ALK (unknown origin) by enzymatic assay

T1 sequence (P07949 whole entry): as the sequence (P07949 whole entry V804L) above, with L804V counted along it

## Cn1cc(-c2ccc3c(c2)ncn3-c2ccc(CC(=O)Nc3cc(C(C)(C)C)on3)cc2)cn1
[1]
  IC50: < 1 nM
[2]
  IC50: < 1 nM
[3]
  IC50: < 1 nM

## CN1CCN(Cc2ccc(NC(=O)c3cncc(C#Cc4cnc(N)c5ncccc45)c3)cc2C(F)(F)F)CC1
[4]
  inhibition: 60%
[5]
  IC50: 3.16 nM
[6]
  inhibition: 98%
[7]
  IC50: 3 nM
[8]
  IC50: 3 nM

## Cc1nc2cnc(N)c(C#Cc3cncc(C(=O)Nc4ccc(CN5CCN(C)CC5)c(C(F)(F)F)c4)c3)c2nc1C
[9]
  IC50: 3.6 nM
[10]
  IC50: 18 nM
[11]
  IC50: 1.76 nM
[12]
  IC50: 1.88 nM
[13]
  IC50: 10.1 nM
[14]
  IC50: 11.6 nM
[15]
  IC50: 15.1 nM
[16]
  IC50: 7.98 nM

## CC1(C)c2cc(C3CCN(CC4CCOCC4)CC3)ccc2C(=O)c2c1[nH]c1cc(C#N)ccc21
[17]
  IC50: 43.6 nM

## Cc1ccc(C(=O)Nc2ccc(CN3CCN(C)CC3)c(C(F)(F)F)c2)cc1C#Cc1cnc(N)c2ncccc12
[18]
  inhibition: 40%

## CCc1cc2c(cc1-c1ccn(CCCN(C)C)n1)C(C)(C)c1[nH]c3cc(C#N)ccc3c1C2=O
[19]
  IC50: 2 nM
[20]
  IC50: 9 nM
[21]
  IC50: 0.1 nM
